The target in the assay is CGRP receptor (Homo sapiens, UniProt O60894+Q16602). The experiment in a line: CGRP radioligand binding assay ([125I]-CGRP displacement, SK-N-MC homogenate). Details: endogenous in cells; host or cells: SK-N-MC cells (homogenate/membrane pellet). Particulars: displacement of [125I]-CGRP, room temperature 2 h. As for the experimental part:
CGRP Binding Assay. Tissue Culture. SK—N-MC cells were grown at 37° C. in 5% CO2 as a monolayer in medium consisting of MEM with Earle's salts and L-glutamine (Gibco) supplemented with 10% fetal bovine serum (Gibco). Cell Pellets. The cells were rinsed twice with phosphate-buffered saline (155 mM NaCl, 3.3 mM Na2HPO4, 1.1 mM KH2PO4, pH 7.4), and incubated for 5-10 min. at 4° C. in hypotonic lysis buffer consisting of 10 mM Tris (pH 7.4) and 5 mM EDTA. The cells were transferred from plates to polypropylene tubes (16×100 mm) and homogenized using a polytron. Homogenates were centrifuged at 32,000×g for 30 min. The pellets were resuspended in cold hypotonic lysis buffer with 0.1% mammalian protease inhibitor cocktail (Sigma) and assayed for protein concentration. The SK—N-MC homogenate was then aliquoted and stored at −80° C. until needed.
Radioligand Binding Assay. The compounds of invention were solubilized and carried through serial dilutions using 100% DMSO. Aliquots from the compound serial dilutions were further diluted 25 fold into assay buffer (50 mM Tris-Cl pH 7.5, 5 mM MgCl2, 0.005% Triton X-100) and transferred (volume 50 μl) into 96 well assay plates. [^125I]-CGRP (Amersham Biosciences) was diluted to 60 pM in assay buffer and a volume of 50 μl was added to each well. SK—N-MC pellets were thawed, diluted in assay buffer with fresh 0.1% mammalian protease inhibitor cocktail (Sigma), and homogenized again. SK—N-MC homogenate (5 μg/well) was added in a volume of 100 μl. The assay plates were then incubated at room temperature for 2 h. Assays were stopped by addition of excess cold wash buffer (20 mM Tris-Cl pH 7.5, 0.1% BSA) immediately followed by filtration over glass fiber filters (Whatman GF/B) previously soaked in 0.5% PEI. Non-specific binding was defined with 1 μM beta-CGRP. Protein bound radioactivity was determined using a gamma or scintillation counter. The IC50 was defined as the concentration of a compound of invention required to displace 50% of radioligand binding.
Background: Loss of bound radioactivity is the signal in a displacement assay; it reports binding, not function.

The values that follow come from patent publication US7384931B2, “Constrained compounds as CGRP-receptor antagonists” (Bristol-Myers Squibb Company, priority 2004, dated 2008).

Chain of CGRP receptor (Q16602 23-461): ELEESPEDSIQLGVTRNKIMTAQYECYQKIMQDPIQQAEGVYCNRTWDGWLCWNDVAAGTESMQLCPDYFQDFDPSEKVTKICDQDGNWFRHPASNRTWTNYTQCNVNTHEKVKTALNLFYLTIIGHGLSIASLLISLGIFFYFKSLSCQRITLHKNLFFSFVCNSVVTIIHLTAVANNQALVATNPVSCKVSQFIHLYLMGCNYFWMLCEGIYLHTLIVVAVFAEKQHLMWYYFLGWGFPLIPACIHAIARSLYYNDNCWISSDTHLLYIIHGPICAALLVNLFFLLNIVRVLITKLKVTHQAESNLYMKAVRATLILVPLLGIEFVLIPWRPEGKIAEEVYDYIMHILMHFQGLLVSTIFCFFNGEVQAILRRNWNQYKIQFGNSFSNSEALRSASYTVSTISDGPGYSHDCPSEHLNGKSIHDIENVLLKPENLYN
Chain of CGRP receptor (O60894 27-148): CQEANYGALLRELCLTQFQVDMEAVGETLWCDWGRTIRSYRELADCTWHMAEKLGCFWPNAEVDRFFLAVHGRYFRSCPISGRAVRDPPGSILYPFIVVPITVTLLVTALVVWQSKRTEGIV

Regarding `O=C(C[C@@H]1Cc2cc(Cl)c3[nH]ncc3c2CN(CC(F)(F)F)C1=O)N1CCC(c2cc3cccnc3[nH]c2=O)CC1` [Example 89, (S)-4-chloro-7-(2-oxo-2-(4-(2-oxo-1,2-dihydro-1,8-naphthyridin-3-yl)piperidin-1-yl)ethyl)-9-(2,2,2-trifluoroethyl)-6,7,9,10-tetrahydroazepino[3,4-e]indazol-8(3H)-one], the IC50 (in general, the midpoint of a concentration-inhibition curve) is 0.1 to 10 nM.

As to `Cc1cc2c(c3cn[nH]c13)CN(CC(F)(F)F)C(=O)[C@H](CC(=O)N1CCC(c3cc4cccc(F)c4[nH]c3=O)CC1)C2` [Example 103, (S)-7-(2-(4-(8-fluoro-2-oxo-1,2-dihydroquinolin-3-yl)piperidin-1-yl)-2-oxoethyl)-4-methyl-9-(2,2,2-trifluoroethyl)-6,7,9,10-tetrahydroazepino[3,4-e]indazol-8(3H)-one], the concentration for half-maximal inhibition (IC50) lay within 10 to 100 nM.

With `CC(C)(C)CN1Cc2c(cc(Cl)c3[nH]ncc23)C[C@@H](CC(=O)Nc2ccc3c(c2)CCC2(C3)NC(=O)NC2=O)C1=O` (mixture of isomers) [Example 86, (±)-1-[[(7S)-4-chloro-9-(2,2-dimethylpropyl)-3,6,7,8,9,10-hexahydro-8-oxoazepino[3,4-e]indazol-7-yl]yacetyl]-Amino-3′,4′-dihydro-^1H-spiro[imidazolidine-4,2′naphthalene]-2,5-dione], the IC50 lay within 0.1 to 10 nM.

The molecule `O=C1Nc2ccccc2C2(CCN(C(=O)N[C@@H]3Cc4ccc5[nH]ncc5c4CN(Cc4ccc(C(F)(F)F)cc4)C3=O)CC2)N1` [Example 14, ′H-spiro[piperidine-4,4′-quinazolin]-2′(3′H)-one-1-carboxylic acid [8-oxo-9-(4-trifluoromethyl-benzyl)-3,6,7,8,9,10-hexahydro-2,3,9-triaza-(R)-cyclohepta[e]inden-7-yl]-amide] showed an IC50 of 100 to 1000 nM.

For the molecule `CC(C)(C)CN1Cc2c(cc(Cl)c3[nH]ncc23)C[C@@H](CC(=O)N2CCC(c3cc4ccc(Cl)cc4[nH]c3=O)CC2)C1=O` [Example 116], the 50% inhibitory concentration (IC50) fell in the range of 0.1 to 10 nM.

`COc1cc2ccccc2cc1C1CCN(C(=O)C[C@@H]2Cc3cc(Cl)c4[nH]ncc4c3CN(CC(C)(C)C)C2=O)CC1` [Example 73, 1-[[7-(S)-4-choro-9-(2,2-Dimethylpropyl)-3,6,7,8,9,10-hexahydro-8-oxoazepino[3,4-e]indazol-7-yl]acetyl]-4-(3-methoxy-2-naphthalenyl)piperidine] yielded a half-maximal inhibitory concentration (IC50) above 1000 nM.

With `O=C(N[C@@H]1Cc2ccc3[nH]ncc3c2CN(CCN2CCCCC2)C1=O)N1CCC(N2Cc3ccccc3NC2=O)CC1` [Example 3, 4-(2-Oxo-1,4-dihydro-2H-quinazolin-3-yl)-piperidine-1-carboxylic acid [8-oxo-9-(2-piperidin-1-yl-ethyl)-3,6,7,8,9,10-hexahydro-2,3,9-triaza-(R)-cyclohepta[e]inden-7-yl]-amide], the IC50 lay in the range of 100 to 1000 nM.

`CN(C)CCN1Cc2c(ccc3[nH]ncc23)C[C@@H](NC(=O)N2CCC(N3Cc4ccccc4NC3=O)CC2)C1=O` [Example 5, 4-(2-Oxo-1,4-dihydro-2H-quinazolin-3-yl)-piperidine-1-carboxylic acid [9-(2-dimethylamino-ethyl)-8-oxo-3,6,7,8,9,10-hexahydro-2,3,9-triaza-(R)-cyclohepta[e]inden-7-yl]-amide] registered an IC50 of 100 to 1000 nM.

The molecule `O=C(N[C@@H]1Cc2ccc3[nH]ncc3c2CN(Cc2ccc(C(F)(F)F)cc2)C1=O)N1CCC(N2Cc3ccccc3NC2=O)CC1` [Example 13, 4-(2-Oxo-1,4-dihydro-2H-quinazolin-3-yl)-piperidine-1-carboxylic acid [8-oxo-9-(4-trifluoromethyl-benzyl)-3,6,7,8,9,10-hexahydro-2,3,9-triaza-(R)-cyclohepta[e]inden-7-yl]-amide] returned an IC50 of 10 to 100 nM.

Take `CC(C)(C)CN1Cc2c(cc(Cl)c3[nH]ncc23)C[C@@H](CC(=O)N2CCC(c3cc4c(F)cccc4[nH]c3=O)CC2)C1=O` [Example 118]: the half-maximal inhibitory concentration (IC50) fell in the range of 10 to 100 nM.

Turning to `O=C(C[C@@H]1Cc2cc(Cl)c3[nH]ncc3c2CN(Cc2ccncc2)C1=O)N1CCC(c2cc3ccccc3c[n+]2[O-])CC1` [Example 82], the concentration for half-maximal inhibition (IC50) is 0.1 to 10 nM.

In turn, `CC(C)c1cc2c(c3cn[nH]c13)CN(CC(F)(F)F)C(=O)[C@H](CC(=O)N1CCC(c3cc4ccccc4[nH]c3=O)CC1)C2` [Example 106, (S)-4-isopropyl-7-(2-oxo-2-(4-(2-oxo-1,2-dihydroquinolin-3-yl)piperidin-1-yl)ethyl)-9-(2,2,2-trifluoroethyl)-6,7,9,10-tetrahydroazepino[3,4-e]indazol-8(3H)-one] gave an IC50 of 10 to 100 nM.

In the case of `O=C(C[C@@H]1Cc2cc(Cl)c3[nH]ncc3c2CN(CC(F)(F)F)C1=O)N1CCC(c2cc3cccc(F)c3[nH]c2=O)CC1` [Example 91, (S)-4-chloro-7-(2-(4-(8-fluoro-2-oxo-1,2-dihydroquinolin-3-yl)piperidin-1-yl)-2-oxoethyl)-9-(2,2,2-trifluoroethyl)-6,7,9,10-tetrahydroazepino[3,4-e]indazol-8(3H)-one], the IC50 was in the range of 0.1 to 10 nM.

With `COCCN1Cc2c(cc(Br)c3[nH]ncc23)C[C@@H](CC(=O)N2CCC(c3cc4ccccc4[nH]c3=O)CC2)C1=O` [Example 113, (S)-4-bromo-9-(2-methoxyethyl)-7-(2-oxo-2-(4-(2-oxo-1,2-dihydroquinolin-3-yl)piperidin-1-yl)ethyl)-6,7,9,10-tetrahydroazepino[3,4-e]indazol-8(3H)-one], the half-maximal inhibitory concentration (IC50) lay in the range of 0.1 to 10 nM.

The molecule `C=C(C)c1cc2c(c3cn[nH]c13)CN(CC(F)(F)F)C(=O)[C@H](CC(=O)N1CCC(c3cc4cccc(F)c4[nH]c3=O)CC1)C2` [Example 109, (S)-7-(2-(4-(8-fluoro-2-oxo-1,2-dihydroquinolin-3-yl)piperidin-1-yl)-2-oxoethyl)-4-(prop-1-en-2-yl)-9-(2,2,2-trifluoroethyl)-6,7,9,10-tetrahydroazepino[3,4-e]indazol-8(3H)-one] yielded a concentration for half-maximal inhibition (IC50) of 100 to 1000 nM.

The molecule `CC(C)c1cc2c(c3cn[nH]c13)CN(CC(C)(C)C)C(=O)[C@H](CC(=O)N1CCC(c3cc4ccccc4[nH]c3=O)CC1)C2` [Example 104, (S)-4-isopropyl-9-neopentyl-7-(2-oxo-2-(4-(2-oxo-1,2-dihydroquinolin-3-yl)piperidin-1-yl)ethyl)-6,7,9,10-tetrahydroazepino[3,4-e]indazol-8(3H)-one] came in with an IC50 of 10 to 100 nM.

With `CC(C)(C)CN1Cc2c(ccc3[nH]ncc23)C[C@@H](CC(=O)N2CCC3(CC2)NC(=O)Nc2ccccc23)C1=O` [Example 71, 1-[[7-(S)-9-(2,2-Dimethylpropyl)-3,6,7,8,9,10-hexahydro-8-oxoazepino[3,4-e]indazol-7-yl]acetyl]-spiro[piperidine-4,4′(1′H)-quinazolin]-2′(3′H)-one], the IC50 lay within 100 to 1000 nM.

`CC(C)CN1Cc2c(ccc3[nH]ncc23)CC(NC(=O)N2CCC3(CC2)NC(=O)Nc2ccccc23)C1=O` (stereo not shown) [Example 25, N-[9-(2-methylpropyl)-8-oxo-3,6,7,8,9,10-hexahydroazepino[3,4-e]indazol-7-yl]-2′-oxo-2′,3′-dihydro-1H, 1′H-spiro[piperidine-4,4′-quinazoline]-1-carboxamide] displayed an IC50 of 100 to 1000 nM.

Molecule `CN1Cc2c(ccc3[nH]ncc23)C[C@@H](NC(=O)N2CCC(N3Cc4ccccc4NC3=O)CC2)C1=O` [Example 2, 4-(2-Oxo-1,4-dihydro-2H-quinazolin-3-yl)-piperidine-1-carboxylic acid (9-methyl-8-oxo-3,6,7,8,9,10-hexahydro-2,3,9-triaza-(R)-cyclohepta[e]inden-7-yl)-amide] displayed a half-inhibitory concentration (IC50) of 100 to 1000 nM.

In the case of `O=C(C[C@@H]1Cc2cc(Br)c3[nH]ncc3c2CN(CC(F)(F)F)C1=O)N1CCC(c2cc3cccnc3[nH]c2=O)CC1` [Example 96, (S)-4-bromo-7-(2-oxo-2-(4-(2-oxo-1,2-dihydro-1,8-naphthyridin-3-yl)piperidin-1-yl)ethyl)-9-(2,2,2-trifluoroethyl)-6,7,9,10-tetrahydroazepino[3,4-e]indazol-8(3H)-one], the IC50 lay within 0.1 to 10 nM.

As for `CC(C)c1cc2c(c3cn[nH]c13)CN(CC(C)(C)C)C(=O)[C@H](CC(=O)N1CCC(c3cc4cccc(F)c4[nH]c3=O)CC1)C2` [Example 105, (S)-7-(2-(4-(8-fluoro-2-oxo-1,2-dihydroquinolin-3-yl)piperidin-1-yl)-2-oxoethyl)-4-isopropyl-9-neopentyl-6,7,9,10-tetrahydroazepino[3,4-e]indazol-8(3H)-one], the IC50 lay within 10 to 100 nM.

On to `CC(C)(C)CN1Cc2c(cc(Br)c3[nH]ncc23)C[C@@H](CC(=O)N2CCC(c3cc4cccc(F)c4[nH]c3=O)CC2)C1=O` [Example 95, (S)-4-bromo-7-(2-(4-(8-fluoro-2-oxo-1,2-dihydroquinolin-3-yl)piperidin-1-yl)-2-oxoethyl)-9-neopentyl-6,7,9,10-tetrahydroazepino[3,4-e]indazol-8(3H)-one], for which the IC50 is 10 to 100 nM.
